Counter-ions that a name gives are not always drawn. Starred links: 1 amine or outer side, 2 acyl side, 3 side chain; linkers in the order of their positions; H or OH if unused. Positions of bridges follow the written chain, without caps; N, C: chain ends. Non-standard residues stand in square brackets, D forms with d. Residues, ends and D or L forms follow the SMILES beside them. Chains are numbered I, II in the order given. Actinocin(9to1) = Cc1c2oc3c(C)ccc(C(=O)[*:1])c3nc-2c(C(=O)[*:2])c(N)c1=O; NMeV = CN[C@H](C(=O)O)C(C)C; Sar = CNCC(=O)O
Columns and labels:
[1] = system: Swiss 3T3 fibroblasts; assay: In vitro cytotoxicity assay on contact inhibited 3T3 fibroblasts (MTS); conditions: for % control (viability of quiescent 3T3 cells): 2 day incubation
Experimental: A third assay utilized in the present invention involves an in vitro cytotoxicity assay. This assay is used to further characterize the compounds in order to assess toxic activities of compounds on contact inhibited, non-dividing 3T3 fibroblasts. Other toxicity assays may be used.
Contact inhibited Swiss 3T3 fibroblasts are purchased from ATCC. The cells are maintained in 1640 RPMI supplemented with 10% fetal bovine serum (Gibco).
On day of assay, cells are detached from flasks by trypsinization, washed in medium and counted. 100 microliters of 2.5 x 10^4 cells per well are plated into Falcon brand 96 well tissue culture plates and cells incubated at 37°C in presence of 5% CO2 for 2 days or until confluent.
[…] All compound dilutions are assayed in triplicate. […] Cells are returned to the incubator for 2 days.
After 2 day incubation, the 3T3 cells are assayed for viability using an MTS Assay Kit (Promega). Media is added to blank wells for background calculations. After 2 hours incubation in kit reagent, the optical density at 490 nm for each compound and control is determined by plate reader.
Results are expressed as percent cytotoxicity, i.e., (mean OD of compound wells - background OD)/ (mean OD of controls - background).
Note that starting concentration of CsA was 1 µM. […]

[2] = system: IFN-γ; assay: Human primary Th2 cells, anti-CD3/anti-CD28 activated, IFN-γ ELISA; type: cell-based; conditions: human primary Th2 cells, anti-CD3 and anti-CD28 (Table 5)
Experimental: (§1) Briefly, CD4^+CD45RA^+ T cells, isolated from donor peripheral blood mononuclear cells of healthy donors, are educated in the presence of anti-CD3/CD28 antibodies and various growth factors to obtain either a Thl-like or Th2-like phenotypes as determined by the known cytokine profiles of these two cell types.
(§2) Peripheral blood mononuclear cells (PBMC) are prepared from human blood by Ficoll-Hypacque (Pharmacia). The cells are washed two times in Hanks balanced salt solution (HBSS) and counted.
(§3) Naive T cells (CD4^+/CD45RA ) are prepared by negative selection method using following antibodies and Dynabeads: anti-CD8, anti-HLA-DR, (where HLA means human leucocyte antigen) anti-CD14, anti-CD16, anti-CD19, anti-CD45RO antibodies (all from R&D Systems, 1-2 µg/ml) are added to the cells, and the cells are kept on ice for 30 min. The cells are washed two times in HBSS, and goat anti- mouse Ig-beads, (bead:target ratio, 5:1) are added. The cells and beads are slowly rotated at 4°C for 20 min. (following the protocol supplied from Dynal). The supernatant is removed and fresh goat anti-mouse Ig-beads are added to the supernatant, which is slowly rotated at 4°C for 20 min. The cells are counted and phenotypically characterized by flow cytometric analysis.
(§4) CD4^+/CD45RA^+ cells at a density of 10^6/ml in RPMI, is prepared and added to RPMI medium containing 10% Hyclone serum/ glutamine and 1-2 µg/ml anti-CD28 Ab. The cells are split in two aliquots. For Th1 cells: anti-IL-4 Ab (1-2 µg/ml), IFN-γ (1 µg/ml, or 5000 units/ml) are added to the wells. For Th2 cells: IL-4 (100-200 ng/ml), anti-IFN-γ neutralizing Ab (1-2 µg/ml), anti-IL-12 neutralizing Ab (1-2 µg/ml) are added into the wells. […] The cells are transferred to fresh wells and grown in 200 units/ml IL-2 for 2 weeks by feeding them every other day with IL-2 containing medium and splitting the cultures 1:2 or 1:3 as needed. The degree of polarization is determined by intracellular staining of cells with anti-IFN-γ and anti-IL-4 antibodies from Pharmingen, and using flow cytometry from Becton Dickinson (BD), according to manufacturers description. The cells are stimulated with PHA and alloantigens at day 14 and 28 as described below. Eight days after the second allostimulation the cells can be used for compound screening or frozen for future use. For compound testing, large quantities of Th1 and Th2 cells derived from a given donor (NYTh1 and NYTh2) were expanded and frozen as aliquots in liquid nitrogen. The cells are thawed and cultured as and when needed. The thawed cells are stimulated with alloantigen/PHA combination. The cells are used for compound screening after 8-10 days in culture.
(§5) Re-stimulation by allogeneic cells: Human PBMCs, to be used as alloantigens, are isolated from freshly drawn blood by Ficoll separation. […] Cells are counted and diluted to a final concentration of 2 x 10^6/ml in medium containing 10 µg/ml PHA and 200 units/ml IL-2.
(§6) Ninetysix well Falcon tissue culture plates (Fisher Scientific) are coated with 100 microliters per well of 10 µg/ml anti-CD3 (PharMingen) antibody in phosphate buffered saline (PBS) and stored at 4°C one day before the experiment.
(§7) On the day of assay, anti-CD3 antibody coated plates are washed with PBS once to remove all soluble anti-CD3 antibody. […] All compounds and controls are assayed in triplicates.

[3] = system: eosinophils; assay: In vivo ovalbumin (OVA) mouse model, BALF eosinophils; design: species or system mice; conditions: i.n.
Experimental: On days 0, 7, 14, each animal is injected intraperitoneal (i.p.) with a 0.2 ml Ovalbumin Hydragel solution. Each animal receives 10 µg of Ovalbumin in 0.2 mL of Hydragel, aluminum hydroxide adsorptive gel containing 2% aluminum oxide. […] On day 24, BALF is obtained from a second group of animals and used for differential cell counts. […]
Sensitization Regimen: Mice are sensitized by an intraperitoneal injection of 10 µg ovalbumin (OVA) mixed in 4 mg aluminum hydroxide Al(OH)3 gel suspension in 0.2 ml sterile saline on Days 0, 7 and 14. […] The animals are ready for OVA challenge on Day 21. […]
Method of Study Performance: On day 24, 72 hours following aerosol OVA exposure, a separate group of animals are anesthetized with urethane (0.15 - 0.2 gm/kg) and the trachea is exposed and cannulated. […] Total cells and eosinophils are determined using a Technicon Hl and cytoslides, respectively. […]
Compounds are given (30 mg/kg), intranasally, once, 30 min before OVA challenge unless noted otherwise. […] From a parallel set of animals, BAL are collected at 48 hours and the number of eosinophils are determined.

[4] = system: IL-13; assay: Human primary Th2 cells, anti-CD3/anti-CD28 activated, IL-13 ELISA; type: cell-based; conditions: human primary Th2 cells, anti-CD3 and anti-CD28 (Table 5)
Experimental: as §1, §2, §3, §4, §5, §6, §7

[5] = system: IL-4; assay: In vivo ovalbumin (OVA) mouse model, BALF IL-4; design: species or system mice
Experimental: This model is designed to determine the ability of a test article to modulate an antigen-induced pulmonary inflammatory cell accumulation in sensitized Balb/c mice from Charles River Laboratories. The mice are given a two week time period from arrival date prior to sensitizations.
On days 0, 7, 14, each animal is injected intraperitoneal (i.p.) with a 0.2 ml Ovalbumin Hydragel solution. Each animal receives 10 µg of Ovalbumin in 0.2 mL of Hydragel, aluminum hydroxide adsorptive gel containing 2% aluminum oxide. […] On day 22, BALF samples are collected from one group of animals and used for cytokine analysis. On day 24, BALF is obtained from a second group of animals and used for differential cell counts.
Test System: Female Babl/cJ mice (Jackson Laboratories), approximately 6-9 weeks old, each weighing approximately 20 to 25 grams, are divided into ten animals per group.
Sensitization Regimen: Mice are sensitized by an intraperitoneal injection of 10 µg ovalbumin (OVA) mixed in 4 mg aluminum hydroxide Al(OH)3 gel suspension in 0.2 ml sterile saline on Days 0, 7 and 14. This suspension is prepared one hour before intraperitoneal injection into each mouse. The animals are ready for OVA challenge on Day 21.
Antigen Challenge: Animals are exposed to aerosolized OVA on day 21 (5% w/v in sterile saline) for 20 minutes. The aerosol is generated by a PARI-Master nebulizer, the outlet of which is connected to a small Plexiglas® chamber containing the animals. Bronchoalveolar lavage is performed on Day 22.
Method of Study Performance: On day 24, 72 hours following aerosol OVA exposure, a separate group of animals are anesthetized with urethane (0.15 - 0.2 gm/kg) and the trachea is exposed and cannulated. Lungs are lavaged with 2 x 0.5 ml Hank's balanced salt solution without Ca^2+ and Mg^2+ (HBSS; Gibco, Grand Island, NY) containing 0.1% EDTA. Lavage fluid is recovered after 30 sec by gentle aspiration and pooled for each animal. Samples are centrifuged at 2000 rpm for 15 minutes at 5°C. After centrifugation, individual supernatants are stored frozen at -80°C. The resulting pellet is resuspended in 0.5 ml of HBSS containing 0.1% EDTA. Total cells and eosinophils are determined using a Technicon Hl and cytoslides, respectively.
Administration of the Test/Control Article: The test article and vehicle dosing preparations are administered once to each anesthetized mouse intranasally using a 200 µl pipette at 30-60 minutes prior to OVA challenge. Each animal receives 50 µl (25 µl/nostril) at each time point. Method of Euthanasia: Urethane overdose at in-life completion.
Compounds administered 30 minutes before aerosol ovalbumin challenge in ova sensitized mice. BALF harvested 24 hours after aerosol challenge. N = 6/group.
Mice (12 animals per group) are sensitized with 0.2 ml of an AlOH3 hydrogel suspension (2% AlOH3) containing 50 µg/ml ovalbumin on days 0, 7 and 14. […] The glucocorticosteroid budesonide (10 mg/kg) is included as a control. All compounds are given in 0.5% methylcellulose/0.2% Tween 80, intranasally (50µl). After the OVA challenge for 24 hours, the mice underwent bronchoalveolar lavage and IL-4 and IL-13 levels in the BALF are determined by ELISA. Another group of mice underwent bronchoalveolar lavage (72 hours after treatment) to determine the number of the eosinophils (*p<0.05, **p<0.01).
Compounds are given (30 mg/kg), intranasally, once, 30 min before OVA challenge unless noted otherwise. BAL fluids are collected 24 hours after OVA challenge and the cytokine levels are measured by standard ELISAs.

[6] = system: IL-5; assay: Human primary Th2 cells, anti-CD3/anti-CD28 activated, IL-5 ELISA; type: cell-based; conditions: human primary Th2 cells, anti-CD3 and anti-CD28 (Table 5)
Experimental: as §1, §2, §3, §4, §5, §6, §7

[7] = system: IL-4; assay: Human primary Th2 cells, anti-CD3/anti-CD28 activated, IL-4 ELISA; type: cell-based; conditions: human primary Th2 cells, anti-CD3 and anti-CD28 (Table 5)
Experimental: as §1, §2, §3, §4, §5, §6, §7

[8] = system: Human Th2 cells; assay: Human primary Th2 cells, proliferation (viability, MTS assay); type: cell-based; conditions: human primary Th2 cells, anti-CD3 and anti-CD28 (Table 5); read-out: Prolif. IC50
Experimental: as §1, §2, §3, §4, §5, §6, §7

SMILES | % control (viability of quiescent 3T3 cells) ([1]; 0.001 µM) [% control] | % control (viability of quiescent 3T3 cells) ([1]; 0.003 µM) [% control] | % control (viability of quiescent 3T3 cells) ([1]; 0.01 µM) [% control] | % control (viability of quiescent 3T3 cells) ([1]; 0.03 µM) [% control] | % control (viability of quiescent 3T3 cells) ([1]; 0.1 µM) [% control] | % control (viability of quiescent 3T3 cells) ([1]; 3 µM) [% control] | % control (viability of quiescent 3T3 cells) ([1]; 10 µM) [% control] | toxic effects on the viability of quiescent 3T3 cells (in words) ([1]; non-dividing 3T3 cells) | IC50 [2] [µM] | Eos % ctl At 72hours ([3]; 10 mg/kg) [% ctl] | Eos % ctl At 72hours ([3]; 30 mg/kg) [% ctl] | IC50 [4] [µM] | IL-4 % ctl At 24hours ([5]; i.n., 10 mg/kg) [% ctl] | IL-4 % ctl At 24hours ([5]; i.n., 12 mg/kg) [% ctl] | IL-4 % ctl At 24hours ([5]; i.n., 30 mg/kg, once, 30 min before OVA challenge) [% ctl] | IL-4 % ctl At 24hours ([5]; i.p., 30 mg/kg) [% ctl] | IC50 [6] [µM] | IC50 [7] [µM] | IC50 [8] [µM]
Cc1c2oc3c(C)ccc(C(=O)N[C@@H]4C(=O)N[C@H](C(C)C)C(=O)N5CCC[C@H]5C(=O)N(C)CC(=O)N(C)[C@@H](C(C)C)C(=O)O[C@@H]4C)c3nc-2c(C(=O)N[C@@H]2C(=O)N[C@H](C(C)C)C(=O)N3CCC[C@H]3C(=O)N(C)CC(=O)N(C)[C@@H](C(C)C)C(=O)O[C@@H]2C)c(N)c1=O [Actinomycin D] (I: T[dV]P[Sar][NMeV] / II: T[dV]P[Sar][NMeV]; ester I:1-I:C, II:1-II:C; linker I:N-II:N via Actinocin(9to1)) | 79.0 | 74.9 | 67.2 | 33.9 | 28.2 | 29.7 | 16.8 | effected the viability | – | – | – | – | – | – | – | – | – | – | –
O=C(O)c1[nH]c2ccccc2c1Nc1ccncc1 [Example 28 (maleate salt)] | – | – | – | – | – | – | – | – | > 10 | 53 | 28 | ~10 | 57 | 50 | 34 | 43 | > 10 | 0.24 | > 10

Reference: EP1501797B1, “3-(SUBSTITUTED AMINO)-1H-INDOLE-2-CARBOXYLIC ACID ESTER AND 3-(SUBSTITUTED AMINO)-BENZO[B]THIOPHENE-2-CARBOXYLIC ACID ESTER DERIVATIVES AS INTERLEUKIN-4 GENE EXPRESSION INHIBITORS” (Aventis Pharmaceuticals Inc., priority 2002, dated 2003)
